Test [1] in a line: Inhibition of anti-19F rabbit polyclonal antibody binding to Streptococcus pneumoniae 19F capsular polysaccharide coated on to plates after overnight incubation ar 4 to 8 degC by competitive ELISA. The arrangement: species or system Oryctolagus cuniculus.
A short description of test [2]: Inhibition of binding of anti-19A rabbit polyclonal antibody to Streptococcus pneumoniae 19A capsular polysaccharide coated on to plates after overnight incubation at 4 to 8 degC by competitive ELISA. Details: species or system Oryctolagus cuniculus.
The species entered for test [3] is Oryctolagus cuniculus. Briefly: Inhibition of anti-19F rabbit polyclonal antibody binding to Streptococcus pneumoniae 19F capsular polysaccharide coated on to plates at 1 mg/ml after overnight incubation ar 4 to 8 degC by competitive ELISA.
Test [4] is filed under the species Oryctolagus cuniculus. Put plainly: Inhibition of binding of anti-19A rabbit polyclonal antibody to Streptococcus pneumoniae 19A capsular polysaccharide coated on to plates at 1 mg/ml after overnight incubation at 4 to 8 degC by competitive ELISA.

As to `CC(=O)N[C@@H]1[C@H](O[C@H]2[C@H](O)[C@@H](O)[C@@H](O[C@@H]3[C@@H](O)[C@H](C)O[C@@H](OCCCN)[C@@H]3O)O[C@@H]2CO)O[C@H](CO)[C@@H](O)[C@@H]1O.Cl`, the EC50 in test [1] came to 2.7 ×10⁻² mg/ml; in test [2], 1.3 ×10⁻³ mg/ml. Also, the inhibition came out at 32% in the test listed under Oryctolagus cuniculus [3] and 41% in the test filed under Oryctolagus cuniculus [4].

Source of the values: ChEMBL document CHEMBL4261660, “Synthesis and biological evaluation of a trisaccharide repeating unit derivative of Streptococcus pneumoniae 19A capsular polysaccharide” (Bioorg Med Chem, 2018).
